In patent US8313901B2, “Methods and compositions related to the modulation of riboswitches” (Yale University, priority 2005, dated 2012):
pKd: −log10 of the molar value.

Key:
[1] = test system: glmS ribozyme; assay: High-throughput FRET fluorescence screen of substrate cleavage by bimolecular glmS ribozyme (Example 1, Method 1); type: biochemical; settings: for Fl21 h/Flg h: fluorescence ratio, high-throughput fluorescence screen, 21 h
Protocol: The naturally occurring glmS RNA element catalyzes self-cleavage in the presence of modest concentrations (>100 μM) of glucosamine-6-phosphate (Gln6P, FIG. 1A). In the absence of this important metabolite, no cleavage activity is observed. Although the natural sequence of the glmS element forms a unimolecular cis-cleaving ribozyme, active glmS ribozyme can also be constructed as a biomolecular […] ribozyme. In this format, the cleaved strand, termed the substrate, includes the 5′ base pairs that form half of the pairing element 1 (P1) and the conserved nucleotides upstream P1 (FIG. 1B). The non-cleaved ribozyme strand includes the 3′ half of P1 and the remaining sequence of the glmS element. Using this biomolecular format, the 16-nucleotide substrate strand was labeled at the 3′ and the 5′ ends with the fluorescently probes fluorescein (F1) and cy3, respectively. In an uncleaved substrate RNA, emission of the excited state fluorescein is quenched by the enforced proximity of the cy3 quencher. Upon cleavage in the presence of the Gln6P system, the binding of Gln6P (or related derivatives) to the glmS riboswitch can be rapidly screened using standard high-throughput techniques.
After a minimum of 10 hours incubation, the fluorescence intensity of FI increased ˜4 fold in the presence of 160 μM glucosamine-6-phosphate, whereas no observable change was detected in the absence of effector (FIG. 2). […] To further explore the discriminatory limits of this detection system, a library of sixteen Gln6P derivatives was also screened. The resulting glmS binding activities correspond well with the binding activities independently determined by gel electrophoresis methods (Table 1). Detection systems are also being used to screen a novel library of 20,000 compounds (Microsource Discovery Systems, Inc.) unrelated to Gln6P for binding the glmS ribozyme.

[2] = test system: glmS ribozyme; assay: Electrophoretic in-line probing of analog binding to glmS ribozyme
[3] = target: ribD RNA; settings: cited from earlier work
[4] = test system: bimolecular glmS ribozyme; assay: Single reaction FRET-based kinetic assay of glmS cleavage; type: biochemical, S. aureus; settings: 40 μM GlcN6P, within 20 minutes
Protocol: Low-throughput glmS kinetic analyses. All kinetic assays were conducted in 50 mM HEPES (pH 7.5 at 25° C.), 10 mM MgCl2, and 200 mM KCl. To initiate the reaction, GlcN6P was added to give a final concentration of 200 μM. Kinetic assays with radiolabeled substrate were performed as described previously (Soukup, Nucleic Acids Res 2006; 34: 968-975). Rate constants were established by plotting the natural logarithm of the fraction of substrate remaining uncleaved versus time, and then determining the negative slope of the resulting line. For the highest rate constants, only the initial phase of the plots were used because ˜20% of the RNA substrate remained uncleavable. […]
To enable FRET detection of cleavage, the substrate was synthesized with a 5-(and 6-)-carboxyfluorescein (5/6-FAM) donor at the 3′ end and a Cy3™ acceptor at the 5′ end. […] When the substrate strand is intact, however, the fluorescence of 5/6-FAM is reduced presumably due to quenching by the proximal Cy3™ acceptor. After addition of GlcN6P and cleavage of the substrate strand, the two product strands dissociate, relieving the proximity of 5/6-FAM and Cy3™, with a concomitant increase of 5/6-FAM fluorescence. Similar fluorescence-based systems have been used to detect ribozyme cleavage in real time (Singh et al., RNA 1999; 5: 1348-1356; Hanne et al., Nucleosides Nucleotides 1998; 17: 1835-1850). […]

[5] = test system: bimolecular glmS ribozyme; assay: High-throughput glmS assay, FRET in 384-well plates (Example 2); type: biochemical, S. aureus; settings: for relative fluorescence (relative to time zero): 200 μM
Protocol: High-throughput glmS assay. High-throughput fluorescence assay validation and screening was performed in 384-well black polypropylene plates (Corning part number 3677) in a 10 μL solution of 50 mM HEPES (pH 7.5 at 25° C.), 10 mM MgCl2, and 200 mM KCl, with 0.01% SDS where indicated in the text. A Tecan Aquarius multichannel pipettor (Tecan Group, LTD, Switzerland) was used for automated liquid handling. In a typical experiment, a reaction mixture containing buffer and both RNA domains was transferred into the assay plates with the liquid handler, the fluorescence was measured, and the reaction was initiated by the addition of ˜50 nl of either GlcN6P, an analog of GlcN6P, or a library compound suspended at 10 mM in DMSO using the Tecan pin tool (˜50 μM final concentration of compound). Plates were sealed with non-breathable sealing tape and protected from light for the specified incubation time, at which point the plate was briefly centrifuged and the fluorescence measured. All multiplate fluorescence measurements were conducted with a Wallach Envision (Perkin Elmer, Wellesly, Mass.) plate reader with a 480 nm excitation filter (30 nm bandwidth) and a 535 nm emission filter (25 nm bandwidth).
To enable FRET detection of cleavage, the substrate was synthesized with a 5-(and 6-)-carboxyfluorescein (5/6-FAM) donor at the 3′ end and a Cy3™ acceptor at the 5′ end. When excited at 485 nm, the 5/6-FAM donor normally emits at a maximum wavelength of 526 nm. When the substrate strand is intact, however, the fluorescence of 5/6-FAM is reduced presumably due to quenching by the proximal Cy3™ acceptor. After addition of GlcN6P and cleavage of the substrate strand, the two product strands dissociate, relieving the proximity of 5/6-FAM and Cy3™, with a concomitant increase of 5/6-FAM fluorescence. Similar fluorescence-based systems have been used to detect ribozyme cleavage in real time (Singh et al., RNA 1999; 5: 1348-1356; Hanne et al., Nucleosides Nucleotides 1998; 17: 1835-1850). Using this FRET detection strategy, the addition of 40 μM GlcN6P induces an increase in the fluorescence signal of greater than 6 fold within 20 minutes (FIG. 7B). The modest burst in fluorescence increase could be due to a conformational change in the substrate that occurs upon ligand binding. Tertiary contacts between ribozyme and substrate would constrain the substrate to a greater extent compared to that caused by the short base paired region, thus increasing the average distance between donor and acceptor. Importantly, no fluorescence increase was observed over this time course in the absence of either GlcN6P or the ribozyme.
To facilitate rapid solution-based measurement of cleavage for large compound libraries, the assay conditions were optimized for automated liquid handling and fluorescence measurement in 384-well microplates. To reduce demand for enzyme and substrate RNAs, the concentrations of these molecules were varied to determine the minimal concentration of each that can be used to give a reproducible and statistically significant increase in the fluorescent signal. At 10 nM of each strand, a 4-fold increase in fluorescence was observed after 68 hours when 100 μM GlcN6P was present (FIG. 7C). […] At incubation times less than 48 hours, the increase in fluorescence was noticeably less, most likely because the concentration of the two RNA strands is well below the measured dissociation constant of 0.2 μM, slowing the observed cleavage rate. […]

[6] = test system: glmS riboswitch; settings: cited from earlier work
[7] = test system: bimolecular glmS ribozyme; assay: Kinetic assay with 5'-radiolabeled substrate; type: biochemical, S. aureus; settings: 0.5 μM ribozyme, 200 μM GlcN6P, saturating substrate, 25° C.
Protocol: Low-throughput glmS kinetic analyses. All kinetic assays were conducted in 50 mM HEPES (pH 7.5 at 25° C.), 10 mM MgCl2, and 200 mM KCl. To initiate the reaction, GlcN6P was added to give a final concentration of 200 μM. Kinetic assays with radiolabeled substrate were performed as described previously (Soukup, Nucleic Acids Res 2006; 34: 968-975). Rate constants were established by plotting the natural logarithm of the fraction of substrate remaining uncleaved versus time, and then determining the negative slope of the resulting line. For the highest rate constants, only the initial phase of the plots were used because ˜20% of the RNA substrate remained uncleavable. Single reaction FRET-based kinetic assays were performed with λexcit=488 nm (slit width=1 nm), λemit=523 nm (slit width=8 nm).
Although the glmS ribozyme sequence is highly conserved among many bacterial species, the S. aureus sequence was chosen for screening development because of its clinical importance. To facilitate detection of cleavage, the natural self-cleaving glmS ribozyme was converted to a bimolecular ribozyme (FIG. 6B) in which separate substrate and ribozyme oligonucleotides associate via a truncated P1 stem. […]

[8] = test system: unimolecular glmS ribozyme; settings: cited from earlier work
[9] = test system: glmS ribozyme; assay: PAGE / electrophoretic analysis of glmS ribozyme activation; type: biochemical, S. aureus; settings: after incubating for 2 hours
Protocol: This cutoff for functional compounds (“hits”) of 2.5-fold increased fluorescence represents a statistically significant 18 standard deviations over the mean fluorescence value in the absence of ligand (“NL”). […] A similar case exists for glucosamine, which induces a 3.0-fold increase in fluorescence after 44 hours, even though its measured affinity for the ribozyme is more than 100-fold lower than GlcN6P (McCarthy et al., Chem Biol 2005; 12: 1221-1226). Thus, the fluorescent report from the high-throughput screen accurately reflects binding activity for the glmS ribozyme.
Each of the five compounds identified was retested for glmS activation with either the fluorescence screen or by electrophoretic methods. […] Moreover, these types of infrequent false-positive hits have been observed for other fluorescence-based high-throughput screens (Zhang et al., J Biomol Screen 2005; 10: 695-704) and can readily be confirmed or refuted in our case with the secondary ribozyme cleavage assay (Soukup and Breaker, RNA 1999; 5: 1308-1325). One possible explanation for the false positives is that they quench or otherwise modify the fluorescent label on the RNA over the 44 hour time course, or that the compounds become fluorescent over time. Nevertheless, the identification of glucosamine confirms that this screen can identify even low affinity glmS-activating compounds from complex compound libraries.

## CC(=O)N[C@H]1C(O)O[C@H](COP(=O)(O)O)[C@@H](O)[C@@H]1O (some centres unmarked) [AcNGln 6P]
[1]
  Fl21 h/Flg h: 2.28
[2]
  Activity by electrophoretic in-line probing: Weakly

## Cc1cc2nc3c(=O)[nH]c(=O)nc-3n(C[C@H](O)[C@H](O)[C@H](O)COP(=O)(O)O)c2cc1C [FMN, flavin mononucleotide]
[3]; read-out: apparent KD
  pKd: ~8.30

## O=P(O)(O)OC[C@H]1OC(O)[C@H](O)[C@@H](O)[C@H]1O (some centres unmarked) [Gal6P]
[1]
  Fl21 h/Flg h: 1.69

## N[C@@H]1[C@@H](O)[C@H](O)[C@@H](COP(=O)(O)O)O[C@@H]1O [Gln6P com]
[1]
  Fl21 h/Flg h: 2.24
[2]
  Activity by electrophoretic in-line probing: Yes

## N[C@H]1C(O)O[C@H](COP(=O)(O)O)[C@@H](O)[C@@H]1O (some centres unmarked) [Gln6P, glucosamine-6-phosphate]
[1]; 160 μM glucosamine-6-phosphate, minimum of 10 hours incubation
  increase in fluorescence intensity of Fl: ~4 fold
[1]
  Fl21 h/Flg h: 3.36
[4]
  increase in the fluorescence signal: greater than 6 fold
[5]; 10 nM of each strand, 100 μM GlcN6P, after 68 hours, 0.01% SDS
  increase in fluorescence: 4 fold
[5]; 21 hours
  relative fluorescence (relative to time zero): 3.5
[5]; 44 hours
  relative fluorescence (relative to time zero): 3.4
[5]; screen of library of twelve GlcN6P analogs
  increase in fluorescence: 3.5 fold
[2]
  Activity by electrophoretic in-line probing: Yes
[6]; concentrations as low as
  concentration that activates cleavage: ≥ 1 µM
[6]; previously reported
  single-turnover rate constant: 1 min⁻¹
[6]; read-out: apparent KD
  pKd: 3.70
[7]
  apparent rate constant of cleavage: 0.25 min⁻¹

## N[C@H]1C(O)O[C@H](CO)[C@@H](O)[C@@H]1O (some centres unmarked) [Gln com]
[1]
  Fl21 h/Flg h: 1.87
[2]
  Activity by electrophoretic in-line probing: Yes

## C[N+](C)(C)C1C(O)OC(COP(=O)(O)O)C(O)C1O (centres unmarked) [Me3N-Gln 6P]
[1]
  Fl21 h/Flg h: 1.27
[2]
  Activity by electrophoretic in-line probing: No

## CNC1C(O)OC(COP(=O)(O)O)C(O)C1O (centres unmarked) [MeN-Gln 6P]
[1]
  Fl21 h/Flg h: 3.49
[2]
  Activity by electrophoretic in-line probing: Yes

## N[C@H]1C(O)O[C@H](CO)[C@@H](O)[C@@H]1O (some centres unmarked) [glucosamine]
[5]; after 44 hours
  increase in fluorescence: 3.0 fold
[8]; after 30 minutes
  activity in previously described glmS screen: no observable activity
[8]
  activation of the glmS ribozyme: cannot activate it
[9]
  cleavage on a gel: stimulates detectable cleavage

## O=C[C@H](O)[C@@H](O)[C@H](O)[C@H](O)COP(=O)(O)O [glucose-6-phosphate]
[8]
  activation of the glmS ribozyme: cannot activate it

## Cc1cc2nc3c(=O)[nH]c(=O)nc-3n(C[C@H](O)[C@H](O)[C@H](O)CO)c2cc1C [riboflavin]
[3]
  discrimination against ligand relative to FMN: approximately three orders of magnitude

## COC1OC(COP(=O)(O)O)C(O)C(O)C1N (stereo not drawn) [β-MeO-Gln 6P]
[1]
  Fl21 h/Flg h: 1.02
[2]
  Activity by electrophoretic in-line probing: No
